The values that follow are results of earlier work, collected in patent publication US8088597B2, “Blood pressure lowering peptides from glycomacropeptide” (DSM IP Assets B.V., priority 2005, dated 2012).

The subject of data set [1] is spontaneously hypertensive rats. The following applies: tripeptides derived from lactic acid bacteria fermented bovine milk; Nakamura et al. 1995.
Data set [2] has as its target ACE (Homo sapiens, UniProt P12821). The following applies: reported in the literature.

Chain of ACE (P12821 30-1306, species assumed): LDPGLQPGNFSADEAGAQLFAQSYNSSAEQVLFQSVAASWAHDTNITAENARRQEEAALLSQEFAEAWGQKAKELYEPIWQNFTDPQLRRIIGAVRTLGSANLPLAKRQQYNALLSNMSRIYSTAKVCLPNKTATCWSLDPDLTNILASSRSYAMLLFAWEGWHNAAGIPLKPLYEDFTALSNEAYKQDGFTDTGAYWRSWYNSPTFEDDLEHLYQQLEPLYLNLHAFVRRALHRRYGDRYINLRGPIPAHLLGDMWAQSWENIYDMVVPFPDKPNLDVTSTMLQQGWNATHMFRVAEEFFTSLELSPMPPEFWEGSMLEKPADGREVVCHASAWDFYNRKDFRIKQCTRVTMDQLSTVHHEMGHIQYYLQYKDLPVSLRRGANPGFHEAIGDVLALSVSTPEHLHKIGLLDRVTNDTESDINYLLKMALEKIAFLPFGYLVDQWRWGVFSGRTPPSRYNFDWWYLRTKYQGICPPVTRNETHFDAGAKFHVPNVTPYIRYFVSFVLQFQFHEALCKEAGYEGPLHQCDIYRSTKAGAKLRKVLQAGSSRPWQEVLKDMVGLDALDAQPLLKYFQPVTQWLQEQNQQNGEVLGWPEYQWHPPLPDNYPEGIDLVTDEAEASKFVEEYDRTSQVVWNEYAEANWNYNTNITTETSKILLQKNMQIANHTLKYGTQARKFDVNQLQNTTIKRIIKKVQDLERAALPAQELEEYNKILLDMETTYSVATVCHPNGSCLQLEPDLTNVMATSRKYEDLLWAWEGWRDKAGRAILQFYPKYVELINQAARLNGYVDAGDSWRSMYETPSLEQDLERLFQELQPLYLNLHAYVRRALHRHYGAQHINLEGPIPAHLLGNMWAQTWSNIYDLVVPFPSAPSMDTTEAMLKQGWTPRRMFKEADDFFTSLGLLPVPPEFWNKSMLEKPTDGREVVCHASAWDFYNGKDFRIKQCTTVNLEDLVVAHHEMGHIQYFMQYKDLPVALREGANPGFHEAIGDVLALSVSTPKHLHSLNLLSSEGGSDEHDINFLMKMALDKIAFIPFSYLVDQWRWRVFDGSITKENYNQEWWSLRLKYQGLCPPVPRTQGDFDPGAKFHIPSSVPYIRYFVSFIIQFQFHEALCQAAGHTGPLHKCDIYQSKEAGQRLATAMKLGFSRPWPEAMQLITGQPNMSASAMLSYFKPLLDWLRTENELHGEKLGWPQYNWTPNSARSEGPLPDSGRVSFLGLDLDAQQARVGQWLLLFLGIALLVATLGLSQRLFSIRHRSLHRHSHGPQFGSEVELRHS

Take Val-Pro-Pro: in data set [1], the antihypertensive effects entry was “confirmed”. Besides, the ACE inhibiting activity entry in data set [2] was “Strong ACE inhibiting activities”.

For Leu-Pro-Pro, the ACE inhibiting activity result in data set [2] is reported as “Strong ACE inhibiting activities”.

As to Ile-Pro-Pro, the antihypertensive effects entry in data set [1] is reported as “confirmed”. Moreover, the ACE inhibiting activity entry in data set [2] is “Strong ACE inhibiting activities”.
